The results in this text go back to BigSolDB 2.1.

For the data set the following is noted: in water.

Broadly, the solubility (mole fraction) is solubility expressed as the solute's share of all molecules. On to `COc1cc(NS(=O)(=O)c2ccc(N)cc2)nc(OC)n1`, for which the solubility (mole fraction) by setting is: (298.15 K) 3.07e-06; (303.15 K) 3.83e-06; (308.15 K) 4.78e-06; (313.15 K) 5.83e-06; (318.15 K) 7.25e-06; (323.15 K) 8.76e-06. Further, the solubility (mole fraction) came out at 1.05e-05 (328.15 K) and 1.28e-05 (333.15 K).
Regarding `COc1cnc(NS(=O)(=O)c2ccc(N)cc2)nc1`, the solubility (mole fraction) reads like this: (298.15 K) 5.52e-06; (303.15 K) 7.19e-06; (308.15 K) 9.26e-06; (313.15 K) 1.17e-05; (318.15 K) 1.48e-05; (323.15 K) 1.88e-05. Also, the solubility (mole fraction) (328.15 K) was 2.34e-05 and the solubility (mole fraction) (333.15 K) was found to be 2.92e-05.
Regarding `COc1cc(NS(=O)(=O)c2ccc(N)cc2)ncn1`, the solubility (mole fraction) is 3.88e-06 (298.15 K); 4.9e-06 (303.15 K); 6.13e-06 (308.15 K); 7.65e-06 (313.15 K); 9.63e-06 (318.15 K); 1.17e-05 (323.15 K). Besides, the solubility (mole fraction) by setting is: (328.15 K) 1.45e-05; (333.15 K) 1.76e-05.
In the case of `Nc1ccc(S(=O)(=O)Nc2ncccn2)cc1`, the solubility (mole fraction) runs as follows: (298.15 K) 4.82e-06; (303.15 K) 6.2e-06; (308.15 K) 8.23e-06; (313.15 K) 1.05e-05; (318.15 K) 1.33e-05; (323.15 K) 1.7e-05. In addition, the solubility (mole fraction) was found to be 2.1e-05 (328.15 K) and 2.62e-05 (333.15 K).
In the case of `Nc1ccc(S(=O)(=O)[N-]c2cncc(Cl)n2)cc1.[Na+]`, the solubility (mole fraction) came out at 1.12e-05 (298.15 K); 1.35e-05 (303.15 K); 1.59e-05 (308.15 K); 1.91e-05 (313.15 K); 2.3e-05 (318.15 K); 2.75e-05 (323.15 K). Further, the solubility (mole fraction) reads like this: (328.15 K) 3.28e-05; (333.15 K) 3.91e-05.
